Measured values reported in patent publication US10544075B2 (OREGON HEALTH & SCIENCE UNIVERSITY, priority 2016, dated 2020).

What was measured:
[1] = rat heart rate elevation and anti-goiter assays; cited from earlier work
[2] = Distribution study in brain and serum after systemic (ip) administration, LC-MS/MS; type: in vivo, C57BL/6J mice; settings: 9.14 μmol/kg ip, 1 hr post-injection
Description: Euthanasia was performed on three mice per dose at 1 hr and the tissues and blood were harvested. Tissues were immediately frozen and blood was kept on ice for a minimum of 30 minutes and then spun down at 7,500×G for 15 minutes. Serum (100 uL) was collected and was stored with tissues at −80° C. until samples were processed.
The serum samples were warmed to RT and 10 uL of 2.99 μM internal standard (D6-GC-1) was added to them. Acetonitrile (500 uL) was added and the sample was vortexed for 20 seconds. The sample was then centrifuged at 10,000×G for 15 minutes at 4° C. Next, 90% of the upper supernatant was transferred to a glass test tube and concentrated using a speedvac for 1.5 hr at 45° C. The dried sample was then dissolved in 400 μL of 50:50 ACN:H2O and vortexed for 20 seconds. The resulting mixture was transferred to an Eppendorf tube and centrifuged at 10,000×G for 15 minutes. The supernatant was filtered with […] centrifugal filters and submitted for LCMS/MS analysis. […] The processing was performed exactly the same except after filtering the sample was split among 6 vials.
The brain samples were warmed to RT and transferred to a homogenizer tube with 5 GoldSpec ⅛ chrome steel balls (Applied Industrial Technologies). The resulting tube was weighed and then 1 mL of H2O was added, followed by 10 μL of 2.99 μM internal standard (D6-Sobetirome). The tube was homogenized with a Bead Bug for 30 seconds and then transferred to a Falcon® tube containing 3 mL of ACN. A 1 ml volume of ACN was used to wash the homogenizer tube. Then the solution was transferred back to the Falcon® tube. The sample was then processed using the same method for the serum processing described above except the sample was concentrated in a glass tube using a speed vac for 4 hr at 45° C.
A distribution study was carried out in C57BL/6J mice to determine the concentrations in brain and serum after systemic (ip) administration. […] Tissue and blood were collected 1 hr post-injection and the concentration of the drugs was determined by LC-MS/MS analysis (FIG. 2).

hTRα1 = hTRα1 (Homo sapiens (Human), UniProt P10827); assay: TRE-driven dual luciferase transactivation assay, TRα; type: cell-based; settings: transiently transfected HEK293 cells; ±SEM
Sequence of hTRα1 (P10827 other isoform, or with tags, fused parts or gaps): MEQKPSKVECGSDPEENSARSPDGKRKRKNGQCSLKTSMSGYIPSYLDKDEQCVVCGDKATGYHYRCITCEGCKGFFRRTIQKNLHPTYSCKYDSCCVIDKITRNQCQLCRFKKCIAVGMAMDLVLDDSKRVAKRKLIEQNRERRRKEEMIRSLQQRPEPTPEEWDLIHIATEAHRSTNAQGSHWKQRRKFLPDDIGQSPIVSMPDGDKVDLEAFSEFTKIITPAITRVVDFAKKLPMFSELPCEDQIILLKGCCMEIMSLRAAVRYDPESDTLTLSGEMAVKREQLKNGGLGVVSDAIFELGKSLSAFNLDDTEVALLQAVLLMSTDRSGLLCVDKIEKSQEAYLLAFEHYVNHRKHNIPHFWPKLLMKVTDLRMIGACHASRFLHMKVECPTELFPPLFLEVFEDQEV
Description: The cells were trypsinized with 0.25% trypsin, then diluted to 5×10^5 cells/mL with high glucose DMEM. […] 1.5 μg of TR expression vector (full length TRα-CMV or TRβ-CMV), 1.5 μg of a reporter plasmid containing a DR4 thyroid hormone response element (TRE) direct repeat spaced by four nucleotides (AGGTCAcaggAGGTCA) cloned upstream of a minimal thymidine kinase promoter linked to a firefly luciferase coding sequence, and 0.75 μg of a pRL-SV40 constitutive Renilla luciferase reporter plasmid were diluted into 540 μl of OptiMEM. 27 μL of lipofectamine reagent was diluted into 540 μL of OptiMEM. The plasmid and lipofectamine dilutions were combined then incubated at RT for 10 min. The mixture was then diluted into 4.29 mL of OptiMEM. Plates were washed with 100 μL of phosphate buffered saline (PBS) at pH 7.2 without magnesium or calcium chloride per well. Transfection mixtures were added at 50 μL per well, then incubated at 37° C. for 4 hours. […]
(§1) Cells were assayed for luciferase activity using the Promega DualGlo kit. […] A 50 μl volume of Stop & Glo Reagent was added per well, then the plate was read for Renilla luciferase activity. Data normalized to Renilla internal control were analyzed with GraphPad Prism v.4a using the sigmoid dose response model to generate EC50 values±SEM.

Hairless (Hr) mRNA = assay: Induction of Hairless (Hr) mRNA expression in the brain by qPCR after ip administration; type: in vivo, C57BL/6J mice; settings: for Hr induction compared to GC-1: analogs at 0.914 μmol/kg ip; for Hr induction compared to GC-1 / EC50 of Hr mRNA induction in the brain / induction of Hr expression: 2 hr; for Hr induction compared to GC-1 / potency greater than GC-1 (Hr induction, single dose) / induction of Hr expression: brain; for potency greater than GC-1 (Hr induction, single dose): from single dose comparison; for EC50 of Hr mRNA induction in the brain: ip, ±SEM; for EC50 of Hr mRNA induction in the brain / induction of Hr expression: normalized to GAPDH mRNA; for induction of Hr expression: 9.14 μmol/kg ip
Description: Euthanasia was performed on three mice per dose at 2 hr and the tissues were harvested. The brain tissues collected for qPCR analysis were processed according to a protocol for RNA extraction using Trizol reagent and the PureLink RNA mini kit, using Qiagen RNase-free DNase kit during the optional DNase treatment step. 1 μg of extracted RNA was used to synthesize cDNA via a reverse transcription (RT) reaction using the Qiagen QuantiTect Reverse Transcription kit. DNA contamination was controlled for by duplicating one sample without the addition of RT enzyme. Expression of the Hairless (Hr) gene was measured by QPCR using the QuantiTect SYBR green PCR kit from Qiagen. The primer sequences for hairless ([…]; Rev: [NT] were previously described by Barca-Mayo19. The template cDNA was diluted 2-fold to minimize the interference of RT reagents in the qPCR reaction. Glyceraldehyde-3-Phosphate Dehydrogenase (GAPDH) was the housekeeping gene used for normalizing between samples. Data analysis for single dose experiment was done using the comparative CT method to look at the relative differences in Hr gene expression.

hTRβ1 [3] = biological target: hTRβ1 (Homo sapiens (Human), UniProt P10828); assay: TRE-driven dual luciferase transactivation assay, TRβ; type: cell-based; settings: transiently transfected HEK293 cells; ±SEM
Sequence of hTRβ1 (Homo sapiens (Human), UniProt P10828) (P10828 whole entry, looked up): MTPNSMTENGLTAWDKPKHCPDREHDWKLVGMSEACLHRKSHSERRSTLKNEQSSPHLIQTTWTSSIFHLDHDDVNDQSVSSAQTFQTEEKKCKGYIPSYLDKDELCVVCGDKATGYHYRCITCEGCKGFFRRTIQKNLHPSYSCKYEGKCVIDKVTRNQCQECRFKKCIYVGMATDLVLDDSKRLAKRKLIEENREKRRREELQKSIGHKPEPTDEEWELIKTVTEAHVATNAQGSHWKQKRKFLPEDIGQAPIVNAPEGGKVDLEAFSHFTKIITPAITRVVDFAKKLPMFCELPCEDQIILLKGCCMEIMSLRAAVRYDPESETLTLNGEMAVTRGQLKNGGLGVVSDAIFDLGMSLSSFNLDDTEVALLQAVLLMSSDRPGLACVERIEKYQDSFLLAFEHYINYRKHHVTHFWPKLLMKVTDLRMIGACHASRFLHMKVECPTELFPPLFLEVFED
Description: (§2) The cells were trypsinized with 0.25% trypsin, then diluted to 5×10^5 cells/mL with high glucose DMEM. […] 1.5 μg of TR expression vector (full length TRα-CMV or TRβ-CMV), 1.5 μg of a reporter plasmid containing a DR4 thyroid hormone response element (TRE) direct repeat spaced by four nucleotides (AGGTCAcaggAGGTCA) cloned upstream of a minimal thymidine kinase promoter linked to a firefly luciferase coding sequence, and 0.75 μg of a pRL-SV40 constitutive Renilla luciferase reporter plasmid were diluted into 540 μl of OptiMEM. 27 μL of lipofectamine reagent was diluted into 540 μL of OptiMEM. The plasmid and lipofectamine dilutions were combined then incubated at RT for 10 min. The mixture was then diluted into 4.29 mL of OptiMEM. Plates were washed with 100 μL of phosphate buffered saline (PBS) at pH 7.2 without magnesium or calcium chloride per well. Transfection mixtures were added at 50 μL per well, then incubated at 37° C. for 4 hours. Modified DME/F-12 Ham's medium without phenol red containing 15 mM HEPES and bicarbonate, 5 mM L-glutamine, charcoal-stripped FBS, 50 units/mL penicillin and 50 μg/mL streptomycin was added at 50 μL per well, then the plates were incubated at 37° C. for 20 hours. Drug stocks were made at 10 mM in DMSO, then serially diluted to 1× concentrations in DME/F-12 Ham's. Plates were washed with 100 μL of PBS (pH 7.2) per well. 100 μL of each drug stock was added to the wells in triplicate, and then the plates were incubated at 37° C. for 24 hours.
as §1

hTRβ1 [4] = assay: as above; type: cell-based, human; settings: transactivation assays in HEK293 cells
Description: as §2, §1

[5] = Single time-point drug distribution of parent drugs from amides in brain and serum; type: in vivo, C57Bl/6 mice; settings: equimolar systemic dose of 3.05 μmol/kg, 1 hour, brain
Description: Wild type male C57Bl/6 mice, aged 8-10 weeks, were housed in a climate-controlled room with a 12 hour light-dark cycle with ad libitum access to food and water. To compare the single time-point drug distribution of JD-20 with JD-20 generated from the amide MA-JD20, and JD-21 with JD-21 generated from the amide MA-JD-21, the concentrations of the parent drugs were analyzed in brain and serum of mice by administering a dose of 3.05 μmol/kg (three mice per dose) with JD-20, JD-21, MA-JD20 and MA-JD21 both intraperitoneally and orally. The compounds were dissolved in a mixture of 50:50 DMSO and 0.9% sodium chloride bacteriostatic solution. Oral gavage was performed with the use of plastic feeding tubes (20 ga×38 mm, Instech Laboratories Inc., PA, USA) connected to […] insulin syringes (Covidien LLC MA, USA). In both experiments, the mice were euthanized after 1 hour following drug administration.
The tissues were processed as follows: The brains were collected in previously weighed homogenizer tubes with 3 Gold Spec ⅛ chrome steel balls (Applied Industrial Technologies) and immediately frozen at −80° C. The blood samples were kept on ice for 30 mins and then spun down at 5400×G at 4° C. for 15 min. […]
The serum samples were warmed to room temperature. […] The serum samples thus prepared were submitted for LC-MS/MS analysis to quantify the amount of free JD-20 or JD-21. […]

Human FAAH = Human FAAH (Homo sapiens (Human), UniProt O00519); assay: FAAH activity in cell homogenate; type: biochemical
Sequence of Human FAAH (O00519 whole entry): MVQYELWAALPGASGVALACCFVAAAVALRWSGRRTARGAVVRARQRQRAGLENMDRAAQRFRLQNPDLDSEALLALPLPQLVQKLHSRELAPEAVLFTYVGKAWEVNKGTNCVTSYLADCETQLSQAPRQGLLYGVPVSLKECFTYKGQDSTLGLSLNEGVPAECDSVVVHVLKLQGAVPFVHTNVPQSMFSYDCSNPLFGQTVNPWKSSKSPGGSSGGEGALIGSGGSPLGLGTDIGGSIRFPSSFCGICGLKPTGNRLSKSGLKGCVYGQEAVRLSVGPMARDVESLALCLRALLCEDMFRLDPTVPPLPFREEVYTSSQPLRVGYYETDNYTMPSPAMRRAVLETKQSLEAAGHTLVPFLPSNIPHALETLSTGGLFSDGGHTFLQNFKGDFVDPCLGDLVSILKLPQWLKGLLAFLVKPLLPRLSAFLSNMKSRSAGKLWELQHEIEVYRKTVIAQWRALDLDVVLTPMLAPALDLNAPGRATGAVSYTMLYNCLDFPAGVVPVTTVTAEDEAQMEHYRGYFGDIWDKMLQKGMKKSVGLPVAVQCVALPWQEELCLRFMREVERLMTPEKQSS
Description: COS-7 cells (ATCC CRL-1651) were cultured in Dulbecco's Modified Eagle's Medium supplemented with 10% FBS, penicillin ([…]), and streptomycin ([…]). Cells (800,000/well) were seeded into 6-well plates (Falcon 353046) and left to adhere overnight. Cells were transfected with pcDNA4-FAAH-FLAG with Lipofectamine 2000 (Invitrogen) according to the manufacturer's protocol. Mock transfection controls were done with transfection reagent and no DNA. Cells were washed 4-days post transfection with cold PBS and scraped into TE buffer (125 mM Tris, 1 mM EDTA, pH 9) and sonicated (10 sec, 60 Sonic Dismembrator, Fisher). Cell homogenates were stored at −80° C. and protein concentrations were determined by BCA (Pierce). Cell homogenates were diluted into TE buffer containing 0.1% fatty-acid free BSA (Alfa Aesar). Substrates were added as 50× stocks in DMSO into 50 μL aliquots of homogenate to a final concentration of 100 μM. Reactions were performed with homogenate protein at 31.25 μg/mL for 15 min at 37° C. Reactions were quenched with 100 μL acetonitrile and vortexed for 20 s. Samples were clarified by centrifuge (10,000 rpm, 15 min, 4° C.). The supernatant is diluted 50-fold into 2:1 MeCN:H2O containing 300 nM d11-arachindonic acid and 30 nM d6-sobetirome. Samples were centrifuged again (13,200 rpm, 15 min, 4° C.). Products were quantified by LC/MS-MS with standard curves generated from mock samples. Observed rates are expressed as nmol product per mg protein homogenate per min.
FAAH was overexpressed in COS-7 cells as described above and cell homogenate was used to measure observed rates of substrate cleavage compared with the classic endogenous FAAH substrate anandamide (AEA). Substrate were all tested at 100 μM. Compared to AEA, the thyromimetic amides MA-GC 1 (9-fold), MA-JD20 (31-fold), and MA-JD21 (20-fold) show decreased rates. […] Observed rates are expressed as nmol product per mg homogenate protein per min.

Structure (SMILES) | brain:serum ratio compared to GC-1 [2] | brain uptake compared to GC-1 [2] | serum levels compared to GC-1 [2] | EC50 (hTRα1) | Hr induction compared to GC-1 (Hairless (Hr) mRNA) | potency greater than GC-1 (Hr induction, single dose) (Hairless (Hr) mRNA) | EC50 of Hr mRNA induction in the brain (Hairless (Hr) mRNA) | EC50 (hTRβ1 [3]) | TRβ/TRα subtype selectivity from EC50 values (hTRβ1 [4]) | induction of Hr expression (Hairless (Hr) mRNA) | other results
Cc1cc(CC(N)C(=O)O)cc(C)c1Oc1ccc(O)c(C(C)C)c1 (racemic) [DIMIT, 3′-isopropyl-3,5-dimethyl-DL-thyronine] |  |  |  |  |  |  |  |  |  |  | activity [1]: little measurable activity
CC(C)c1cc(Oc2c(Br)cc(C[C@H](N)C(=O)O)cc2Br)ccc1O [DIBIT, 3′-isopropyl-3,5-dibromo-L-thyronine] |  |  |  |  |  |  |  |  |  |  | potency relative to L-T4 [1]: 2-7 fold
CC(C)c1cc(Cc2c(Br)cc(OCC(=O)O)cc2Br)ccc1O [JD-20, 2-(3,5-dibromo-4-((3-isopropyl-4-hydroxyphenyl)methyl)-phenoxy)acetic acid] | comparable to GC-1 | somewhat lower | significantly lower than GC-1 | 7.96 ± 6.95 nM | comparable Hr induction to GC-1 | roughly 10 fold | 1.49 ± 1.08 µmol/kg | 0.88 ± 1.12 nM | 9.04 |  | 
Cc1cc(OCC(=O)O)cc(C)c1Cc1ccc(O)c(C(C)C)c1 [GC-1, sobetirome, reference compound] |  |  |  |  |  |  | 8.20 ± 12.65 µmol/kg |  |  | 1.6 fold | 
CC(C)c1cc(Cc2c(Cl)cc(OCC(=O)O)cc2Cl)ccc1O [JD-21, 2-(3,5-dichloro-4-((3-isopropyl-4-hydroxyphenyl)methyl)-phenoxy)acetic acid] | higher brain:serum ratio than GC-1 | roughly comparable brain uptake compared to GC-1 | significantly lower than GC-1 | 7.82 ± 3.61 nM | comparable Hr induction to GC-1 | roughly 10 fold | 1.21 ± 1.75 µmol/kg | 1.24 ± 1.3 nM | 6.31 | 2.4 fold | 
CNC(=O)COc1cc(Cl)c(Cc2ccc(O)c(C(C)C)c2)c(Cl)c1 [MA-JD21, 2-(3,5-dichloro-4-(4-hydroxy-3-isopropylbenzl)phenoxy)-N-methylacetamide] |  |  |  |  |  |  |  |  |  |  | parent drug delivered to the CNS compared to unmodified JD-20 or JD-21 [5]: delivers more of the parent drugs to the CNS; FAAH substrate (Human FAAH; 100 μM, COS-7 cell homogenate): substrates for fatty-acid amide hydrolase (FAAH); decreased observed rate of substrate cleavage compared to AEA (Human FAAH; substrate 100 μM, FAAH overexpressed in COS-7 cell homogenate): 20 fold
